Measurements from US20090054392A1, “NAPHTHYLPYRIMIDINE, NAPHTHYLPYRAZINE AND NAPHTHYLPYRIDAZINE ANALOGS AND THEIR USE AS AGONISTS OF THE WNT-BETA-CATENIN CELLULAR MESSAGING SYSTEM” (Wyeth, priority 2007, published 2009).
Where two headings read alike, the source gives them in different places.

Tested on: Dkk1-LRP5-TCF-Luciferase
Test: Functional Dkk1-LRP5-TCF-Luciferase Assay in U2OS Cells
Conditions: for A = MAX FOLD Induction/DMSO CONTROL: maximum fold induction over DMSO control; for fold induction at 2 µM: read-out: B = TCF ACTIVITY/DMSO CONTROL Fold induction @ 2.0 uM, 2.0 uM compound; for fold induction at 20 µM: read-out: C = TCF ACTIVITY/DMSO CONTROL Fold induction @ 20.0 uM, 20.0 uM compound

Row | A = MAX FOLD Induction/DMSO CONTROL [fold] | SMILES | fold induction at 2 µM (Homo sapiens, U2OS) | fold induction at 20 µM (Homo sapiens, U2OS) | other results
1 | 5.480 | N[C@@H]1[C@H]2CN(c3nccc(-c4ccc5ccccc5c4)n3)C[C@@H]12 | – | – | EC50: 4 µM; B = TCF ACTIVITY/DMSO CONTROL Fold induction @ 2.0 uM (2.0 uM compound): 1.920 fold
2 | – | CCN(CC)C(=O)N(C)CCN(C)[C@@H]1CCN(c2nccc(-c3ccc4ccccc4c3)n2)C1 [1,1-diethyl-3-methyl-3-[2-(methyl{(3R)-1-[4-(2-naphthyl)pyrimidin-2-yl]pyrrolidin-3-yl}amino)ethyl]urea] | 1.93 | – | –
3 | – | COc1ccccc1-c1ccc2cc(-c3ccnc(N4CCC(CN)CC4)n3)ccc2c1 [1-(1-{4-[6-(2-methoxyphenyl)-2-naphthyl]pyrimidin-2-yl}piperidin-4-yl)methanamine] | 1.88 | – | –
4 | – | NCC1CCN(c2nccc(-c3ccc4cc(-c5cccs5)ccc4c3)n2)CC1 [1-(1-{4-[6-(2-thienyl)-2-naphthyl]pyrimidin-2-yl}piperidin-4-yl)methanamine] | 1.21 | 0.03 | –
5 | – | COc1ccc(-c2ccc3cc(-c4ccnc(N5CCC(CN)CC5)n4)ccc3c2)cc1 [1-(1-{4-[6-(4-methoxyphenyl)-2-naphthyl]pyrimidin-2-yl}piperidin-4-yl)methanamine] | – | 1.9 | –
6 | – | NCC1CCN(c2nccc(-c3ccc4cc(CN5CCOCC5)ccc4c3)n2)CC1 [1-(1-{4-[6-(morpholin-4-ylmethyl)-2-naphthyl]pyrimidin-2-yl}piperidin-4-yl)methanamine] | 1.1 | – | –
7 | – | NCC1CCN(c2nccc(-c3ccc4cc(CN5CCCCC5)ccc4c3)n2)CC1 [1-(1-{4-[6-(piperidin-1-ylmethyl)-2-naphthyl]pyrimidin-2-yl}piperidin-4-yl)methanamine] | 1.4 | – | –
8 | 1.380 | NCC1CCN(C(=O)c2nccc(-c3ccc4ccccc4c3)n2)CC1 [1-(1-{[4-(2-naphthyl)pyrimidin-2-yl]carbonyl}piperidin-4-yl)methanamine] | 0.46 | 1.42 | –
9 | – | NCC1CCN(Cc2nccc(-c3ccc4ccccc4c3)n2)CC1 [1-(1-{[4-(2-naphthyl)pyrimidin-2-yl]methyl}piperidin-4-yl)methanamine] | 1.41 | 1.77 | –
10 | 1.510 | CS(=O)(=O)N1CCCN(c2nccc(-c3ccc4ccccc4c3)n2)CC1 [1-(methylsulfonyl)-4-[4-(2-naphthyl)pyrimidin-2-yl]-1,4-diazepane] | – | 1.59 | EC50 (Homo sapiens, U2OS): 5.61 µM
11 | – | NC[C@H]1CC[C@H](Oc2nccc(-c3ccc4ccccc4c3)n2)CC1 [1-(trans-4-{[4-(2-naphthyl)pyrimidin-2-yl]oxy}cyclohexyl)methanamine] | – | – | EC50 (Homo sapiens, U2OS): 0.46 µM
12 | – | c1ccc2cc(-c3ccnc(N4CCC(CN5CCCCCC5)CC4)n3)ccc2c1 [1-({1-[4-(2-naphthyl)pyrimidin-2-yl]piperidin-4-yl}methyl)azepane] | 1.45 | – | –
13 | – | O=C1CCCCN1CC1CCN(c2nccc(-c3ccc4ccccc4c3)n2)CC1 [1-({1-[4-(2-naphthyl)pyrimidin-2-yl]piperidin-4-yl}methyl)piperidin-2-one] | 1.55 | 0.73 | –
14 | – | O=C1CCCN1CC1CCN(c2nccc(-c3ccc4ccccc4c3)n2)CC1 [1-({1-[4-(2-naphthyl)pyrimidin-2-yl]piperidin-4-yl}methyl)pyrrolidin-2-one] | 1.33 | 0.81 | –
15 | 2.260 | c1ccc2cc(-c3ccnc(N4CCC(CN5CCCCCC5)C4)n3)ccc2c1 (stereo not drawn) [1-({1-[4-(2-naphthyl)pyrimidin-2-yl]pyrrolidin-3-yl}methyl)azepane] | 2.33 | – | –
16 | 2.680 | OC1CCN(CC2CCN(c3nccc(-c4ccc5ccccc5c4)n3)C2)CC1 (stereo not drawn) [1-({1-[4-(2-naphthyl)pyrimidin-2-yl]pyrrolidin-3-yl}methyl)piperidin-4-ol] | 3.52 | 0.1 | EC50 (Homo sapiens, U2OS): 5.53 µM
